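Following 48 hours of exposure in 96-well plates, responses at five concentrations were used to interpolate endpoints linearly. GI50 marks 50% less growth. TGI denotes the concentration required for complete inhibition of growth.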
Key:
Assay in all cases: NCI-60 cell line screen, 48 h
DMS 114 small cell lung = test system: DMS 114 small cell lung
NCI-H460 lung = test system: NCI-H460 lung
SF-539 CNS = test system: SF-539 CNS
DLD-1 colon = test system: DLD-1 colon
IGROV1 ovarian = test system: IGROV1 ovarian
OVCAR-3 ovarian = test system: OVCAR-3 ovarian
TK-10 renal = test system: TK-10 renal
UO-31 renal = test system: UO-31 renal
SN12C renal = test system: SN12C renal
CAKI-1 renal = test system: CAKI-1 renal

With `O=[N+]([O-])c1cc(/C=N/NS(=O)(=O)c2ccc(F)cc2)c(O)c([N+](=O)[O-])c1` the TGI (DMS 114 small cell lung) was over 100 µM, the TGI (NCI-H460 lung) was 84 µM and the TGI (SF-539 CNS) was 43.9 µM. It also gave a TGI (DLD-1 colon) of over 100 µM, a TGI (IGROV1 ovarian) of over 100 µM and a TGI (OVCAR-3 ovarian) of 68 µM. For the same compound, the TGI (TK-10 renal) was over 100 µM, the TGI (UO-31 renal) was over 100 µM and the TGI (SN12C renal) was over 100 µM. For the same compound, the TGI (CAKI-1 renal) was over 100 µM.
`Cc1cccc(N=C2NC(=O)C(CC(=O)Nc3ccc(Cl)cc3C)S2)c1` (stereo not drawn) was tested, and the TGI (DMS 114 small cell lung) was over 100 µM, the TGI (NCI-H460 lung) was over 100 µM and the TGI (SF-539 CNS) was over 100 µM. The TGI (DLD-1 colon) was over 100 µM, the TGI (IGROV1 ovarian) was over 100 µM and the TGI (OVCAR-3 ovarian) was over 100 µM. The TGI (TK-10 renal) was over 100 µM, the TGI (UO-31 renal) was over 100 µM and the TGI (SN12C renal) was over 100 µM. The TGI (CAKI-1 renal) was over 100 µM.
`C[C@]12CCCC(=O)C1C[C@H](C(=O)O)CC2` (stereo partly drawn) showed a TGI (DMS 114 small cell lung) of over 100 µM, a TGI (NCI-H460 lung) of over 100 µM and a TGI (SF-539 CNS) of over 100 µM. It also gave a TGI (DLD-1 colon) of over 100 µM, a TGI (IGROV1 ovarian) of over 100 µM and a TGI (OVCAR-3 ovarian) of over 100 µM. It also gave a TGI (TK-10 renal) of over 100 µM, a TGI (UO-31 renal) of over 100 µM and a TGI (SN12C renal) of over 100 µM. The TGI (CAKI-1 renal) was over 100 µM.
Work on `Nn1c(N=Nc2c(O)[nH]c3ccccc23)n[nH]c1=S` yielded a TGI (DMS 114 small cell lung) of over 100 µM, a TGI (NCI-H460 lung) of over 100 µM and a TGI (SF-539 CNS) of over 100 µM. The TGI (DLD-1 colon) was over 100 µM, the TGI (IGROV1 ovarian) was over 100 µM and the TGI (OVCAR-3 ovarian) was over 100 µM. It also gave a TGI (TK-10 renal) of over 100 µM, a TGI (UO-31 renal) of over 100 µM and a TGI (SN12C renal) of over 100 µM. The TGI (CAKI-1 renal) was over 100 µM.
Compound `CCC[CH2][Sn]1([CH2]CCC)[O]C(=O)c2cc(C)ccc2[O]1` has a TGI (DMS 114 small cell lung) of 0.771 µM, a GI50 (NCI-H460 lung) of 1.54 µM and a TGI (NCI-H460 lung) of 2.87 µM. The GI50 (SF-539 CNS) was 0.521 µM, the TGI (SF-539 CNS) was 1.66 µM and the GI50 (DLD-1 colon) was 0.537 µM. The TGI (DLD-1 colon) was 1.83 µM, the GI50 (IGROV1 ovarian) was 0.924 µM and the TGI (IGROV1 ovarian) was 2.21 µM. It also gave a GI50 (OVCAR-3 ovarian) of 0.614 µM, a TGI (OVCAR-3 ovarian) of 1.91 µM and a GI50 (TK-10 renal) of 0.385 µM. The TGI (TK-10 renal) was 1.18 µM, the GI50 (UO-31 renal) was 1.19 µM and the TGI (UO-31 renal) was 2.45 µM. It also gave a GI50 (SN12C renal) of 0.547 µM, a TGI (SN12C renal) of 1.86 µM and a GI50 (CAKI-1 renal) of 0.169 µM. For the same compound, the TGI (CAKI-1 renal) was 0.785 µM.
With `CS(=O)(=O)c1nc(Cl)c(Cl)c(C#N)c1Cl` the TGI (DMS 114 small cell lung) was 32.2 µM, the TGI (NCI-H460 lung) was 32.4 µM and the TGI (SF-539 CNS) was 11.3 µM. The TGI (DLD-1 colon) was 3.13 µM, the TGI (IGROV1 ovarian) was 14.1 µM and the TGI (OVCAR-3 ovarian) was 4.73 µM. It also gave a TGI (TK-10 renal) of 5.91 µM, a TGI (UO-31 renal) of 4.31 µM and a TGI (SN12C renal) of 5.9 µM. It also gave a TGI (CAKI-1 renal) of 1.69 µM.
`CC12C(=O)N(CCN)C(=O)C1C1c3ccccc3C2c2ccccc21` (stereo not drawn) gave a TGI (DMS 114 small cell lung) of over 100 µM, a TGI (NCI-H460 lung) of over 100 µM and a TGI (SF-539 CNS) of over 100 µM. The TGI (DLD-1 colon) was over 100 µM, the TGI (IGROV1 ovarian) was over 100 µM and the TGI (OVCAR-3 ovarian) was over 100 µM. The TGI (TK-10 renal) was over 100 µM, the TGI (UO-31 renal) was over 100 µM and the TGI (SN12C renal) was over 100 µM. The TGI (CAKI-1 renal) was over 100 µM.
In the case of `NNC(=S)N/N=C/C(Cl)=C(\Cl)C(=O)O`, the TGI (DMS 114 small cell lung) is reported as over 100 µM, the TGI (NCI-H460 lung) is reported as over 100 µM and the TGI (SF-539 CNS) is reported as over 100 µM. It also gave a TGI (DLD-1 colon) of over 100 µM, a TGI (IGROV1 ovarian) of over 100 µM and a TGI (OVCAR-3 ovarian) of over 100 µM. For the same compound, the TGI (TK-10 renal) was over 100 µM, the TGI (UO-31 renal) was over 100 µM and the TGI (SN12C renal) was over 100 µM. For the same compound, the TGI (CAKI-1 renal) was over 100 µM.
For `C[N+]1=c2c3cccc4cccc(c(=O)n2CCC1)c43`, the TGI (DMS 114 small cell lung) was 38.7 µM, the TGI (NCI-H460 lung) was 37.7 µM and the TGI (SF-539 CNS) was over 100 µM. For the same compound, the TGI (DLD-1 colon) was 46.9 µM, the TGI (IGROV1 ovarian) was over 100 µM and the TGI (OVCAR-3 ovarian) was 55.1 µM. It also gave a TGI (TK-10 renal) of 56.4 µM, a TGI (UO-31 renal) of 39.5 µM and a TGI (SN12C renal) of 52.7 µM. The TGI (CAKI-1 renal) was 84 µM.
`O=C1c2ccccc2C(=O)c2sc(Nc3ccc(Cl)c(Cl)c3)nc21` gave a TGI (DMS 114 small cell lung) of 3.26 µM, a TGI (NCI-H460 lung) of 34.2 µM and a TGI (SF-539 CNS) of 8.18 µM. The TGI (DLD-1 colon) was 4.66 µM, the TGI (IGROV1 ovarian) was 10.1 µM and the TGI (OVCAR-3 ovarian) was 6.3 µM. It also gave a TGI (TK-10 renal) of 21.8 µM, a TGI (UO-31 renal) of 4.97 µM and a TGI (SN12C renal) of 3.23 µM. The TGI (CAKI-1 renal) was 8.83 µM.
In the case of `NC(=O)CCC(NC(=O)C(F)(F)F)C(=O)O` (stereo not drawn), the TGI (DMS 114 small cell lung) is reported as over 100 µM, the TGI (NCI-H460 lung) is reported as over 100 µM and the TGI (SF-539 CNS) is reported as over 100 µM. For the same compound, the TGI (DLD-1 colon) was over 100 µM, the TGI (IGROV1 ovarian) was over 100 µM and the TGI (OVCAR-3 ovarian) was over 100 µM. The TGI (TK-10 renal) was over 100 µM, the TGI (UO-31 renal) was over 100 µM and the TGI (SN12C renal) was over 100 µM. The TGI (CAKI-1 renal) was over 100 µM.
Compound `C=C=[CH][Sn]([c]1ccccc1)([c]1ccccc1)[c]1ccccc1` has a GI50 (DMS 114 small cell lung) of 1.52 µM, a TGI (DMS 114 small cell lung) of 2.94 µM and a GI50 (NCI-H460 lung) of 1.44 µM. It also gave a TGI (NCI-H460 lung) of 3.02 µM, a GI50 (SF-539 CNS) of 2.08 µM and a TGI (SF-539 CNS) of 4.34 µM. For the same compound, the GI50 (DLD-1 colon) was 1.48 µM, the TGI (DLD-1 colon) was 4.15 µM and the GI50 (IGROV1 ovarian) was 1.63 µM. The TGI (IGROV1 ovarian) was 4.47 µM, the GI50 (OVCAR-3 ovarian) was 1.54 µM and the TGI (OVCAR-3 ovarian) was 4.61 µM. It also gave a GI50 (TK-10 renal) of 1.65 µM, a TGI (TK-10 renal) of 3.1 µM and a GI50 (UO-31 renal) of 1.44 µM. The TGI (UO-31 renal) was 3.18 µM, the GI50 (SN12C renal) was 1.68 µM and the TGI (SN12C renal) was 3.19 µM. The GI50 (CAKI-1 renal) was 1.74 µM and the TGI (CAKI-1 renal) was 4.29 µM.
`CC1=NN(c2ccccc2)C(=O)C1N=Nc1ccc(Br)c(C)c1` (stereo not drawn) showed a TGI (DMS 114 small cell lung) of over 100 µM, a TGI (NCI-H460 lung) of over 100 µM and a TGI (SF-539 CNS) of over 100 µM. The TGI (DLD-1 colon) was over 100 µM, the TGI (IGROV1 ovarian) was over 100 µM and the TGI (OVCAR-3 ovarian) was over 100 µM. For the same compound, the TGI (TK-10 renal) was over 100 µM, the TGI (SN12C renal) was over 100 µM and the TGI (CAKI-1 renal) was over 100 µM.
In the case of `OC1C2C=CCC1CCC2` (stereo not drawn), the TGI (DMS 114 small cell lung) is reported as over 100 µM, the TGI (NCI-H460 lung) is reported as over 100 µM and the TGI (SF-539 CNS) is reported as over 100 µM. For the same compound, the TGI (DLD-1 colon) was over 100 µM, the TGI (IGROV1 ovarian) was over 100 µM and the TGI (OVCAR-3 ovarian) was over 100 µM. For the same compound, the TGI (TK-10 renal) was over 100 µM, the TGI (UO-31 renal) was over 100 µM and the TGI (SN12C renal) was over 100 µM. The TGI (CAKI-1 renal) was over 100 µM.
Compound `C=C1CC(C/C=C(\C)CC2CC(=C)C(=O)O2)OC1=O` (stereo not drawn) has a TGI (DMS 114 small cell lung) of over 100 µM, a TGI (NCI-H460 lung) of over 100 µM and a TGI (SF-539 CNS) of over 100 µM. It also gave a TGI (DLD-1 colon) of over 100 µM, a TGI (IGROV1 ovarian) of over 100 µM and a TGI (OVCAR-3 ovarian) of over 100 µM. For the same compound, the TGI (TK-10 renal) was over 100 µM, the TGI (UO-31 renal) was over 100 µM and the TGI (SN12C renal) was over 100 µM. It also gave a TGI (CAKI-1 renal) of over 100 µM.

Reference: PubChem BioAssay (NCI)
